Results on 4 molecules are retold here after PMC10428205, “Cytotoxicity of Ruthenium(II) Arene Complexes Containing Functionalized Ferrocenyl β-Diketonate Ligands” (Organometallics, 2023).

Several values for one entry are separate records, joined by “and”; a condition that tells them apart may be missing. Equal values may be shown once. Read-outs that look alike come from different tables or passages of the source.

Data set [1] deals with MIA PaCa-2. Type of data set: cell-based. As to conditions: for Selectivity index (SI), IC50 ARPE-19 / IC50 MIA PaCa-2: 96 h, * = minimum value as at least one IC50 > 100; for IC50: 96 h MTT, normoxic, ± SD, read-out: IC50 against MIA PaCa-2. On the procedure: (§1) LogP = Log ( [C]final ) Eqn1
(§2) 96 h Chemosensitivity Studies
(§3) In vitro chemosensitivity tests were performed at both the University of Huddersfield and the Institute of Cancer Therapeutics, Bradford, in a sterile Class II Biological Safety Cabinet fitted with a HEPA filtered laminar airflow.
Cellular assays were conducted against human pancreatic carcinoma (MIA PaCa-2), human colorectal carcinoma p53-wildtype (HCT116 p53+/+), and human non-cancerous epithelial retinal cells (ARPE-19). […]
were obtained from the American Type Culture Collection and provided by the University of Huddersfield. All cell lines were routinely maintained as monolayer cultures in appropriate complete medium and maintained in either […]
T-25 or T-75 flasks at 37 °C and 5% CO2.
10% foetal calf serum. All medium was supplemented with sodium pyruvate (1 mM) and L-glutamine (2 mM), and prior to chemosensitivity studies, cell monolayers were passaged using Trypsin-EDTA and diluted to a […]
cells/mL cell suspension was added to each well and incubated for 24 h at 37 °C and 5% CO2. After 24 h, 100 mL of drug dilutions (fresh 100 mM stock solutions in DMSO) in media were added to the plates and then incubated for a further 96 h at 37°C and 5% CO2 (48 h + 48 h recovery period were used for the shorter exposures with MIA PaCa-2 cells only). After 96 h, 20 mL MTT (3-(4,5-dimethylthiazol-2-yl)-2,5-diphenyltetrazolium bromide, 5 mg/mL) was added to each well and incubated for 3 h at 37 °C and 5% CO2. All solutions were then removed from the 96-well plates via pipette and […] of DMSO added to each well to dissolve the purple formazan […]
FC spectrophotometer microplate reader. Using the blank and 100% cell controls, the % cell viability was determined [(abs. of compound containing wells – abs. media wells)/(abs. 100% cell suspension well control)] and from this the % cell death (100%- % cell viability) was calculated. On a logarithmic scale, the percentage cell death was plotted against the concentration of compound, and from this the half maximal inhibitory concentration (IC50) value was determined. Each of the experiments were performed in triplicate with mean values being stated as the IC50 ± Standard Deviation (SD). […]

Another data set has as its system HCT116 p53+/+. As to the kind of experiment: 96 h MTT chemosensitivity assay. The conditions noted are these: for Selectivity index (SI), IC50 ARPE-19 / IC50 HCT116 p53+/+: 96 h, * = minimum value as at least one IC50 > 100; for IC50: 96 h MTT, ± SD, read-out: IC50 against HCT116 p53+/+. The format is cell-based, human. How it is done:
as §1, §2, §3
(§4) Cellular assays were conducted against human pancreatic carcinoma (MIA PaCa-2), human colorectal carcinoma p53-wildtype (HCT116 p53+/+), and human non-cancerous epithelial retinal cells (ARPE-19). The ARPE-19 cells were obtained from the American Type Culture Collection and provided by the University of Huddersfield. All cell lines were routinely maintained as monolayer cultures in appropriate complete medium and maintained in either T-25 or T-75 flasks at 37 °C and 5% CO2. MIA PaCa-2 and ARPE-19 cells were cultured in high glucose DMEM-F12 medium containing 10% foetal calf serum, and HCT116 p53+/+ was cultured in RPMI 1640 supplemented with 10% foetal calf serum. All medium was supplemented with sodium pyruvate (1 mM) and L-glutamine (2 mM), and prior to chemosensitivity studies, cell monolayers were passaged using Trypsin-EDTA and diluted to a concentration of 1 x 10^4 cells/mL. All assays were conducted using 96-well plates, in which 100 mL of the 1 x 10^4 cells/mL cell suspension was added to each well and incubated for 24 h at 37 °C and 5% CO2. After 24 h, 100 mL of drug dilutions (fresh 100 mM stock solutions in DMSO) in media were added to the plates and then incubated for a further 96 h at 37°C and 5% CO2 (48 h + 48 h recovery period were used for the shorter exposures with MIA PaCa-2 cells only). After 96 h, 20 mL MTT (3-(4,5-dimethylthiazol-2-yl)-2,5-diphenyltetrazolium bromide, 5 mg/mL) was added to each well and incubated for 3 h at 37 °C and 5% CO2. All solutions were then removed from the 96-well plates via pipette and 150 mL of DMSO added to each well to dissolve the purple formazan crystals. After mixing well, the absorbance of each well was measured at 540 nm using a ThermoFisher Multiskan FC spectrophotometer microplate reader. Using the blank and 100% cell controls, the % cell viability was determined [(abs. of compound containing wells – abs. media wells)/(abs. 100% cell suspension well control)] and from this the % cell death (100%- % cell viability) was calculated. On a logarithmic scale, the percentage cell death was plotted against the concentration of compound, and from this the half maximal inhibitory concentration (IC50) value was determined. Each of the experiments were performed in triplicate with mean values being stated as the IC50 ± Standard Deviation (SD). […]
(§5) All assays were conducted in triplicate.

Another data set relates to ARPE-19. As to the kind of experiment: 96 h MTT chemosensitivity assay, normal cells. Type of data set: cell-based, human. The conditions noted are these: normal retinal epithelial cells, ± SD, read-out: IC50 against ARPE-19. How it is done:
as §1, §2, §3
as §4, with “After 24 h, 100 mL of drug dilutions (fresh 100 mM stock solutions in DMSO) in media were added to the plates and then incubated for a further 96 h at 37°C and 5% CO2 (48 h + 48 h recovery period were used for the shorter exposures with MIA PaCa-2 cells only). After 96 h, 20 mL MTT (3-(4,5-dimethylthiazol-2-yl)-2,5-diphenyltetrazolium bromide, 5 mg/mL) was added to each well and incubated for 3 h at 37 °C and 5% CO2. All solutions were then removed from the 96-well plates via pipette and 150 mL of DMSO added to each well to dissolve the purple formazan crystals.” left out, “determined.” for “determined. Each of the experiments were performed in triplicate with mean values being stated as the IC50 ± Standard Deviation (SD).”

Data set [2] has as its system MIA PaCa-2. The data set is described as follows: 24 and 48 h chemosensitivity (MTT, with recovery period). The format is cell-based, human. On the procedure:
as §1, §2, §3
Cellular assays were conducted against human pancreatic carcinoma (MIA PaCa-2), human colorectal carcinoma p53-wildtype (HCT116 p53+/+), and human non-cancerous epithelial retinal cells (ARPE-19). The ARPE-19 cells were obtained from the American Type Culture Collection and provided by the University of Huddersfield. All cell lines were routinely maintained as monolayer cultures in appropriate complete medium and maintained in either T-25 or T-75 flasks at 37 °C and 5% CO2. MIA PaCa-2 and ARPE-19 cells were cultured in high glucose DMEM-F12 medium containing 10% foetal calf serum, and HCT116 p53+/+ was cultured in RPMI 1640 supplemented with 10% foetal calf serum. All medium was supplemented with sodium pyruvate (1 mM) and L-glutamine (2 mM), and prior to chemosensitivity studies, cell monolayers were passaged using Trypsin-EDTA and diluted to a concentration of 1 x 10^4 cells/mL. All assays were conducted using 96-well plates, in which 100 mL of the 1 x 10^4 cells/mL cell suspension was added to each well and incubated for 24 h at 37 °C and 5% CO2. After 24 h, 100 mL of drug dilutions (fresh 100 mM stock solutions in DMSO) in media were added to the plates and then incubated for a further 96 h at 37°C and 5% CO2 (48 h + 48 h recovery period were used for the shorter exposures with MIA PaCa-2 cells only). After 96 h, 20 mL MTT (3-(4,5-dimethylthiazol-2-yl)-2,5-diphenyltetrazolium bromide, 5 mg/mL) was added to each well and incubated for 3 h at 37 °C and 5% CO2. All solutions were then removed from the 96-well plates via pipette and […] of DMSO added to each well to dissolve the purple formazan crystals. After mixing well, the absorbance of each well was measured at 540 nm using a ThermoFisher Multiskan FC spectrophotometer microplate reader. Using the blank and 100% cell controls, the % cell viability was determined [(abs. of compound containing wells – abs. media wells)/(abs. 100% cell suspension well control)] and from this the % cell death (100%- % cell viability) was calculated. On a logarithmic scale, the percentage cell death was plotted against the concentration of compound, and from this the half maximal inhibitory concentration (IC50) value was determined. Each of the experiments were performed in triplicate with mean values being stated as the IC50 ± Standard Deviation (SD).
24 and 48 h Chemosensitivity Studies
The same experimental protocol described for the 96 h MTT assay was used, and the MIA PaCa-2 cells were incubated for either 24 or 48 h, with a 72 or 48 h recovery period respectively. […]
as §5

Data set [3] concerns MIA PaCa-2. As to the kind of experiment: Chemosensitivity under hypoxic conditions (0.1% O2, 96 h MTT). Type of data set: cell-based, human. As to conditions: MIA PaCa-2, 0.1% O2, 96 h MTT. On the procedure:
as §1, §2, §3
as §4, with “After 24 h, 100 mL of drug dilutions (fresh 100 mM stock solutions in DMSO) in media were added to the plates and then incubated for a further 96 h at 37°C and 5% CO2 (48 h + 48 h recovery period were used for the shorter exposures with MIA PaCa-2 cells only). After 96 h, 20 mL MTT (3-(4,5-dimethylthiazol-2-yl)-2,5-diphenyltetrazolium bromide, 5 mg/mL) was added to each well and incubated for 3 h at 37 °C and 5% CO2. All solutions were then removed from the 96-well plates via pipette and 150 mL of DMSO added to each well to dissolve the purple formazan crystals.” left out, “determined.” for “determined. Each of the experiments were performed in triplicate with mean values being stated as the IC50 ± Standard Deviation (SD).”

The subject of data set [4] is MIA PaCa-2. As to conditions: read-out: IC50 against MIA PaCa-2 (previously reported analogue); cited from earlier work.

Experimental for Cyclic voltammetry: To test that the redox potential is within a biological relevant region, cyclic voltammetry (CV) experiments are conducted on complexes 1, 2, 4, and 7 and their corresponding ferrocenyl β-diketonate ligands L1, L2, L4, and L7 for reference.
Inlet: scan of the fully reversible Fc*/Fc*^+ redox couple of 4 using scanning speeds between 0.05 and 0.25 V/s.

For `N.N.O=C([O-])C1(C(=O)[O-])CCC1.[Pt+2]` [CARB, carboplatin, reference compound], the “Selectivity index (SI), IC50 ARPE-19 / IC50 MIA PaCa-2” value with MIA PaCa-2 [1] was 2.2. Further, the IC50 in the data set with MIA PaCa-2 [1] was determined as 36 ± 3 µM; in the data set on HCT116 p53+/+, 32 ± 11 µM; in the data set with ARPE-19, 77 ± 10 µM. Besides, the “Selectivity index (SI), IC50 ARPE-19 / IC50 HCT116 p53+/+” value with HCT116 p53+/+ came out at 2.4.

Take `O=C(C=C(O)c1ccco1)[c-]1cccc1.[Fe+2].c1cc[cH-]c1` [Complex L4]: the IC50 in the data set on MIA PaCa-2 [1] is 42.1 ± 0.8 µM; in the data set on MIA PaCa-2 [2] (MIA PaCa-2, 24 h exposure + 72 h recovery, read-out: IC50 values ± SD, 24 h) it was above 100 µM; in the data set on MIA PaCa-2 [2] (MIA PaCa-2, 48 h exposure + 48 h recovery, read-out: IC50 values ± SD, 48 h) it was 43 ± 1 µM. Moreover, the “E0′ (Fc*/Fc*+)” value in “Cyclic voltammetry” (0.1 M TBAPF6 in acetonitrile, vs SCE, Fc/Fc+ = 0.40 V internal standard) stood at 0.63 V. Besides, the “EP Red” value in the data set “Cyclic voltammetry” (irreversible reduction, vs SCE) is recorded as “–1.70 V”. Moreover, in “Cyclic voltammetry” (scan speed 0.05 V/s), the “E0’ (Fc*/Fc*+) at 0.05 V/s” value is 0.64 V. Further, in “Cyclic voltammetry” (scan speed 0.10 V/s), the “E0’ (Fc*/Fc*+) at 0.10 V/s” value is 0.63 V. Besides, the “E0’ (Fc*/Fc*+) at 0.25 V/s” value in the data set “Cyclic voltammetry” (scan speed 0.25 V/s) worked out at 0.63 V.

For `O=C1[O][Pt]2([NH][C@@H]3CCCC[C@H]3[NH]2)[O]C1=O` [OXA, oxaliplatin, reference compound], in the data set with MIA PaCa-2 [1], the “Selectivity index (SI), IC50 ARPE-19 / IC50 MIA PaCa-2” value worked out at 0.5 and the IC50 turned out to be 6 ± 1 µM. Besides, in the data set on HCT116 p53+/+, the “Selectivity index (SI), IC50 ARPE-19 / IC50 HCT116 p53+/+” value is given as 3.2 and the IC50 was 0.9 ± 0.1 µM. Besides, in the data set on ARPE-19, the IC50 was 3 µM and 6 µM. Moreover, the “IC50 under hypoxic conditions” value with MIA PaCa-2 [3] is listed as “decrease in cytotoxicity”.

As to [(bpy)2(Fc-acac)Ru][PF6] [Figure 1F], the IC50 in the data set on MIA PaCa-2 [4] is 0.11 ± 0.01 µM.
